Experimental data published in patent publication US8569327B2, “Phenanthroindolizidine derivative and NFκB inhibitor containing same as active ingredient” (Kabushiki Kaisha Yakult Honsha, priority 2008, dated 2013).

Columns and labels:
NFκB = test: Inhibitory action on the NFκB activity, luciferase assay in SW480/NRE-Luc cells; format: cell-based, human; details: for IC50: Homo sapiens, SW480, read-out: NFκB inhibitory activity IC50; for NFκB inhibitory activity IC50: SW480/NRE-Luc cells, compound 1 h then 50 ng/mL TNFα 4 h, luciferase
Description: (§1) The action of the phenanthroindolizidine alkaloid compound of the present invention on the NFκB activity was studied using a luciferase assay. Human colon cancer SW480 cells were transfected with pNFκB-Luc Plasmid (Stratagene), which is a reporter vector in which a five-time tandem repeat of the NFκB responsive element (NRE) is integrated into the upstream of the luciferase gene, using Lipofectamine 2000 (Invitrogen Corporation) in accordance with the attached operating procedure. Subsequently, the cells were cultured in an RPMI1640 medium containing 10% FBS, 100 U/mL penicillin, 100 μg/mL streptomycin, and 0.5 mg/mL G418 to produce SW480 cells having the luciferase gene, the expression of which is regulated by NRE, stably introduced therein (SW480/NRE-Luc cells). Likewise, SW480 cells were transfected with pGL3-Control Vector (Promega Corporation), which is a reporter vector in which the SV40 promoter is integrated into the upstream of the luciferase gene, to produce SW480 cells having the luciferase gene, the expression of which is regulated by the SV40 promoter, stably introduced therein (SW480/SV40-Luc cells). The SW480/NRE-Luc cells or the SW480/SV40-Luc cells were suspended in an RPMI1640 medium containing 10% FBS, 100 U/mL penicillin, and 100 μg/mL streptomycin (10% FBS/RPMI1640), and then seeded in a 96-well microplate, followed by culturing under conditions of 5% CO2 and at 37° C. (5000 cells/well). After an overnight culture, the compound of the present invention was added, followed by culturing for one hour. Further, 50 ng/mL TNFα (Sigma-Aldrich Corporation) was added, followed by culturing for four hours. Subsequently, a Steady-Glo Luciferase Assay reagent (Promega Corporation) was added, and the luminescent intensity was detected by SpectraMax M5e (Molecular Devices, Inc.) to measure the intracellular luciferase activity. It is to be noted that the action of the compound of the present invention on the NFκB activity or the SV40 promoter activity was shown as IC50 values (the concentration of a test compound needed for 50% inhibition of the induction of the luciferase expression).

SV40 promoter = SV40 promoter activity, luciferase assay in SW480/SV40-Luc cells; format: cell-based, human; details: for IC50: Homo sapiens, SW480, read-out: SV40 promoter inhibitory activity IC50; for SV40 promoter inhibitory activity IC50: SW480/SV40-Luc cells, luciferase
Description: as §1

[1] = tested on: human colon cancer SW480 cells; test: Inhibitory action on the proliferation of SW480 cells; format: cell-based; details: 48 hours, TetraColor ONE; for IC50: Homo sapiens, SW480
Procedure: (§2) The action of the phenanthroindolizidine alkaloid compound of the present invention on the proliferation of human colon cancer SW480 cells, HT-29 cells, and human non-small cell lung cancer A549 cells was studied. The SW480 cells were suspended in a 10% FBS/RPMI1640 and then seeded in a 96-well microplate, followed by culturing in 5% CO2 at 37° C. (2000 cells/well). The A549 cells and the HT-29 cells were each suspended in a DMEM medium containing 10% FBS, 100 U/mL penicillin, and 100 μg/mL streptomycin (10% FBS/DMEM) and a DMEM F-12 HAM medium containing 10% FBS, 100 U/mL penicillin, and 100 μg/mL streptomycin (10% FBS/DMEM F12 HAM), and then seeded in 96-well microplates, followed by culturing in 5% CO2 at 37° C. (1000 cells/well). After an overnight culture, the compound of the present invention was added, followed by further culturing for 48 hours (SW480 cells) and 96 hours (A549 cells and HT-29 cells). After culturing, the number of viable cells was counted using TetraColor ONE (Seikagaku Corporation) in accordance with the attached operating procedure. The results were expressed as the concentration of a test compound needed for 50% inhibition of the proliferation of the cells (IC50).

[2] = tested on: human colon cancer HT-29 cells; test: Inhibitory action on the proliferation of HT-29 cells; format: cell-based; details: 96 hours, TetraColor ONE; for IC50: Homo sapiens, HT-29
Procedure: as §2

[3] = tested on: human non-small cell lung cancer A549 cells; test: Inhibitory action on the proliferation of A549 cells; format: cell-based; details: 96 hours, TetraColor ONE; for IC50: Homo sapiens, A549
Procedure: as §2

Compound | IC50 (NFκB) [ng/mL] | IC50 (SV40 promoter) [ng/mL] | IC50 [1] [ng/mL] | IC50 [2] [ng/mL] | IC50 [3] [ng/mL] | NFκB inhibitory activity IC50 (NFκB) [ng/mL] | SV40 promoter inhibitory activity IC50 (SV40 promoter) [ng/mL] | SW480 proliferation inhibitory action IC50 [1] [ng/mL] | HT-29 proliferation inhibitory action IC50 [2] [ng/mL] | A549 proliferation inhibitory action IC50 [3] [ng/mL]
COc1cc2c3c(c4ccc(NC(=O)OCc5ccccc5)cc4c2cc1OC)[C@H](O)[C@@H]1CCCN1C3.Cl [Compound 26, ((12aS,13S)-13-hydroxy-6,7-dimethoxy-9,10,11,12,12a,13-hexahydro-9a-aza-cyclopenta[b]triphenylene-3-yl)-carbamic acid benzyl ester hydrochloride] | 19.9 | > 1000 | 37.3 | 6.7 | 8.8 |  |  |  |  | 
COc1cc2c3c(c4cccc(O)c4c2cc1OC)[C@H](O)[C@@H]1CCCN1C3.Cl [Compound 30, (12aS,13S)-6,7-dimethoxy-9,10,11,12,12a,13-hexahydro-9a-aza-cyclopenta[b]triphenylene-4,13-diol hydrochloride] | 0.017 | > 1000 | 0.45 | 30.5 | 1.2 |  |  |  |  | 
COc1cc2c3c(c4ccc(OC(=O)C(C)(C)C)cc4c2cc1OC)C[C@@H]1CCCN1C3.Cl [Compound 35, 2,2-dimethyl-propionic acid(S)-6,7-dimethoxy-9,10,11,12,12a,13-hexahydro-9a-aza-cyclopenta[b]triphenylene-3-yl ester hydrochloride] |  |  |  |  |  | 2.4 | >1000 | 4.1 | 3.7 | 1.2
CCc1ccc2c3c(c4cc(OC)c(OC)cc4c2c1)CN1CCC[C@H]1C3.Cl [Compound 41, (S)-3-ethyl-6,7-dimethoxy-9,10,11,12,12a,13-hexahydro-9a-aza-cyclopenta[b]triphenylene hydrochloride] | 281 | > 10000 | 391 | 167 | 112 |  |  |  |  | 
COc1cc2c3c(c4ccc(NC(=O)OCC(C)C)cc4c2cc1OC)C[C@@H]1CCCN1C3.Cl [Compound 42, ((S)-6,7-dimethoxy-9,10,11,12,12a,13-hexahydro-9a-aza-cyclopenta[b]triphenylene-3-yl)-carbamic acid isobutyl ester hydrochloride] | 117 | > 10000 | 96.3 | 19 | 27 |  |  |  |  | 
COc1cc2c3c(c4ccc(OC(=O)c5cccnc5)cc4c2cc1OC)C[C@@H]1CCCN1C3.CS(=O)(=O)O [Compound 47, nicotinic acid(S)-6,7-dimethoxy-9,10,11,12,12a,13-hexahydro-9a-aza-cyclopenta[b]triphenylene-3-yl ester methanesulfonate] |  |  |  |  |  | 0.42 | >1000 | 0.38 | 1.9 | 1.1
COc1cc2c3c(c4ccc(OC(=O)C(C)(C)C)cc4c2cc1OC)C[C@@H]1CCCN1C3.CS(=O)(=O)O [Compound 48, 2,2-dimethyl-propionic acid(S)-6,7-dimethoxy-9,10,11,12,12a,13-hexahydro-9a-aza-cyclopenta[b]triphenylene-3-yl ester methanesulfonate] |  |  |  |  |  | 0.40 | >1000 | 0.58 | 2.0 | 1.2
CCCCC(=O)Oc1ccc2c3c(c4cc(OC)c(OC)cc4c2c1)CN1CCC[C@H]1C3.CS(=O)(=O)O [Compound 49, pentanoic acid(S)-6,7-dimethoxy-9,10,11,12,12a,13-hexahydro-9a-aza-cyclopenta[b]triphenylene-3-yl ester methanesulfonate] |  |  |  |  |  | 0.41 | >1000 | 0.62 | 2.0 | 1.1
CCCC(=O)Oc1ccc2c3c(c4cc(OC)c(OC)cc4c2c1)CN1CCC[C@H]1C3.CS(=O)(=O)O [Compound 50, butyric acid(S)-6,7-dimethoxy-9,10,11,12,12a,13-hexahydro-9a-aza-cyclopenta[b]triphenylene-3-yl ester methanesulfonate] |  |  |  |  |  | 0.34 | >100 | 0.54 | 1.5 | 0.86
CCC(=O)Oc1ccc2c3c(c4cc(OC)c(OC)cc4c2c1)CN1CCC[C@H]1C3.CS(=O)(=O)O [Compound 51, propionic acid(S)-6,7-dimethoxy-9,10,11,12,12a,13-hexahydro-9a-aza-cyclopenta[b]triphenylene-3-yl ester methanesulfonate] |  |  |  |  |  | 0.80 | >100 | 1.1 | 1.6 | 0.78
COc1cc2c3c(c4ccc(OC(=O)c5ccco5)cc4c2cc1OC)C[C@@H]1CCCN1C3.CS(=O)(=O)O [Compound 52, furan-2-carboxylic acid(S)-6,7-dimethoxy-9,10,11,12,12a,13-hexahydro-9a-aza-cyclopenta[b]triphenylene-3-yl ester methanesulfonate] |  |  |  |  |  | 0.61 | >1000 | 0.51 | 2.0 | 1.3
COc1cc2c3c(c4ccccc4c2cc1OC)C[C@@H]1CCCN1C3.CS(=O)(=O)O [Compound 53, (S)-6,7-dimethoxy-9,10,11,12,12a,13-hexahydro-9a-aza-cyclopenta[b]triphenylene methanesulfonate] | 19.1 | > 10000 | 32.9 | 58.5 | 28.9 |  |  |  |  | 
COc1cc2c3c(c4ccc(N)cc4c2cc1OC)C[C@@H]1CCCN1C3.CS(=O)(=O)O [Compound 54, (S)-3-amino-6,7-dimethoxy-9,10,11,12,12a,13-hexahydro-9a-aza-cyclopenta[b]triphenylene methanesulfonate] | 2 | > 10 | 3.9 | 4.15 | 2.8 |  |  |  |  | 
COc1cc2c3c(c4ccc(NC(=O)OCC(C)C)cc4c2cc1OC)C[C@@H]1CCCN1C3.CS(=O)(=O)O [Compound 55, ((S)-6,7-dimethoxy-9,10,11,12,12a,13-hexahydro-9a-aza-cyclopenta[b]triphenylene-3-yl)-carbamic acid isobutyl ester methanesulfonate] | 0.5 | > 10000 | 0.76 | 46 | 33.7 |  |  |  |  | 
COc1cc2c3c(c4ccc(N5CCCC5)cc4c2cc1OC)C[C@@H]1CCCN1C3.CS(=O)(=O)O [Compound 57, (S)-6,7-dimethoxy-3-pyrrolidine-9,10,11,12,12a,13-hexahydro-9a-aza-cyclopenta[b]triphenylene methanesulfonate] |  |  |  |  |  | 0.67 | >10000 | 1.0 | 74.1 | 61.1
